Results published in US8426342B2, “Method for weed control in lawn” (priority 2008, dated 2013).

How the values were obtained:
Type in all cases: in vivo
Trifolium repens = assay: Effectivity testing against weed plants ex. 5.2, co-formulation/granules in tall fescue turf, early post for the weed, Abbott %; details: 50 g a.i./ha
Excerpt: A co-formulation containing a mixture compounds no. […] Granules were applied with a shaker can.
Turf grass species: Festuca arundinacea, variety (tall fescue grass)
Weed species: Trifolium repens
Location: Sports turf, North Carolina, USA
Plot size: 1.4 m^2 and 3 replicates per treatment
Application timing: 27 Mar. 2007, spring application, early post for the weed
Effectivity was rated in percent (%) herbicidal effect compared with untreated control according to the method of Abbott mentioned above (see 5.1). 100% efficacy means full control; 0% efficacy means no control of the weed; all ratings above 80% are usually acceptable.

Veronica arvensis = assay: Effectivity testing against weed plants ex. 5.1, Abbott %
Excerpt: (§1) Each plot was divided by different pre-treatments 1 week before application of the trial treatments: • A) Pre-treatment with glyphosate-isopropylammonium allowing to evaluate in this section the pre-emergence effect against weeds. • B) No pre-treatment, present winter annual weeds are received a post-emergence application.
(§2) 2005, applied on dormant turf in winter
(§3) Effectivity was rated in percent (%) herbicidal effect compared with untreated control according to the method of Abbott according to the formula [(X−Y)/X]100 where X is the absolute level/scoring of the control plants, Y is the level/scoring of the treated plants. 100% efficacy means full control; 0% efficacy means no control of the weed; all ratings above 80% are usually acceptable.

Poa annua = assay: Effectivity testing against weed plants ex. 5.1, sprayable formulation on dormant Bermuda grass turf, Abbott %
Excerpt: as §1, §2, §3

## Cc1ccc2c(c1)[C@H](Nc1nc(N)nc([C@@H](C)F)n1)[C@@H](C)C2 (stereo in doubt) [(A21)/(A22), indaziflam]
Trifolium repens; 30 DAT
  Herbicidal effect (%) on Trifolium repens: 60%
Trifolium repens; 381 DAT
  Herbicidal effect (%) on Trifolium repens: 90%
Veronica arvensis; 25 g a.i./ha, 123 DAT
  Herbicidal effect (%) on Veronica arvensis, Post-emergence application without pre-treatment: 100%
  Herbicidal effect (%) on Veronica arvensis, Pre-emergence application after pre-treatment: 81%
Veronica arvensis; 25 g a.i./ha, 157 DAT
  Herbicidal effect (%) on Veronica arvensis, Post-emergence application without pre-treatment: 94%
  Herbicidal effect (%) on Veronica arvensis, Pre-emergence application after pre-treatment: 100%
Veronica arvensis; 50 g a.i./ha, 123 DAT
  Herbicidal effect (%) on Veronica arvensis, Post-emergence application without pre-treatment: 75%
  Herbicidal effect (%) on Veronica arvensis, Pre-emergence application after pre-treatment: 100%
Veronica arvensis; 50 g a.i./ha, 157 DAT
  Herbicidal effect (%) on Veronica arvensis, Post-emergence application without pre-treatment: 100%
  Herbicidal effect (%) on Veronica arvensis, Pre-emergence application after pre-treatment: 100%
Veronica arvensis; 75 g a.i./ha, 123 DAT
  Herbicidal effect (%) on Veronica arvensis, Post-emergence application without pre-treatment: 100%
  Herbicidal effect (%) on Veronica arvensis, Pre-emergence application after pre-treatment: 100%
Veronica arvensis; 75 g a.i./ha, 157 DAT
  Herbicidal effect (%) on Veronica arvensis, Post-emergence application without pre-treatment: 100%
  Herbicidal effect (%) on Veronica arvensis, Pre-emergence application after pre-treatment: 100%
Poa annua; 25 g a.i./ha, 123 DAT
  Herbicidal effect (%) on Poa annua, Post-emergence application without pre-treatment: 27%
  Herbicidal effect (%) on Poa annua, Pre-emergence application after pre-treatment: 96%
Poa annua; 25 g a.i./ha, 157 DAT
  Herbicidal effect (%) on Poa annua, Post-emergence application without pre-treatment: 77%
  Herbicidal effect (%) on Poa annua, Pre-emergence application after pre-treatment: 92%
Poa annua; 25 g a.i./ha, 187 DAT
  Herbicidal effect (%) on Poa annua, Post-emergence application without pre-treatment: 98%
  Herbicidal effect (%) on Poa annua, Pre-emergence application after pre-treatment: 96%
Poa annua; 50 g a.i./ha, 123 DAT
  Herbicidal effect (%) on Poa annua, Post-emergence application without pre-treatment: 77%
  Herbicidal effect (%) on Poa annua, Pre-emergence application after pre-treatment: 98%
Poa annua; 50 g a.i./ha, 157 DAT
  Herbicidal effect (%) on Poa annua, Post-emergence application without pre-treatment: 95%
  Herbicidal effect (%) on Poa annua, Pre-emergence application after pre-treatment: 100%
Poa annua; 50 g a.i./ha, 187 DAT
  Herbicidal effect (%) on Poa annua, Post-emergence application without pre-treatment: 100%
  Herbicidal effect (%) on Poa annua, Pre-emergence application after pre-treatment: 100%
Poa annua; 75 g a.i./ha, 123 DAT
  Herbicidal effect (%) on Poa annua, Post-emergence application without pre-treatment: 98%
  Herbicidal effect (%) on Poa annua, Pre-emergence application after pre-treatment: 100%
Poa annua; 75 g a.i./ha, 157 DAT
  Herbicidal effect (%) on Poa annua, Post-emergence application without pre-treatment: 100%
  Herbicidal effect (%) on Poa annua, Pre-emergence application after pre-treatment: 100%
Poa annua; 75 g a.i./ha, 187 DAT
  Herbicidal effect (%) on Poa annua, Post-emergence application without pre-treatment: 100%
  Herbicidal effect (%) on Poa annua, Pre-emergence application after pre-treatment: 100%
